From US20240228572A1 (i2o Therapeutics, Inc., priority 2020, published 2024) come the findings set out here.

SMILES strings stand for the structures. *1 amine or outer side, *2 acyl side, *3 side chain or, on linkers, in order; H or OH if unused. Where a SMILES comes first, the peptide text is derived from it. Bridges are numbered along the chain shown (N, C = ends). Side-chain parts run from the residue outwards. [ ]: non-standard residue; d: D form. The star is where a group is joined. C20 diacid = O=C(O)CCCCCCCCCCCCCCCCCCC(=O)*; γGlu = O=C(O)[C@H](CCC(=O)[*:2])N[*:1]; AEEA = NCCOCCOCC(=O)O; Aib = CC(C)(N)C(=O)O

The target in the test is T1, human GLP-1 receptor (GLP-1R) (Homo sapiens, UniProt P43220).
T1 construct: expressed in transfected cells
T1 sequence (P43220 24-463): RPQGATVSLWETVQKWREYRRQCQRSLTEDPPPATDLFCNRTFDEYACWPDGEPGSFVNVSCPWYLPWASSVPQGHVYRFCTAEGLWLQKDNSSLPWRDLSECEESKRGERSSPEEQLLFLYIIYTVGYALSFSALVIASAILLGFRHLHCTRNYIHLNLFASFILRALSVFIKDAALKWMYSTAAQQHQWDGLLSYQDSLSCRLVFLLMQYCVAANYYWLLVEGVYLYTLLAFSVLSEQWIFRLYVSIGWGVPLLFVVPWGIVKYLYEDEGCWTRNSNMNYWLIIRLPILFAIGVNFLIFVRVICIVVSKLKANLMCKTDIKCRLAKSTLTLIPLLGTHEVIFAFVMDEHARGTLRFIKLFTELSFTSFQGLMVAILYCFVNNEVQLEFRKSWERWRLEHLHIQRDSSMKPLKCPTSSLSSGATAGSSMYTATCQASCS
In words: cAMP accumulation assay, CHO-K1 cells stably expressing human GLP-1R. In kind it is cell-based. The settings on record: cAMP accumulation, mean pEC50, Table 10. How it is done: In the presence of the non-specific cAMP/cGMP phosphodiesterase inhibitor, 3-isobutyl-1-methylxanthine (IBMX), accumulating cAMP can be measured in vitro using common detection methods. Thus, it is possible to estimate an in vitro potency (pEC50) for peptides activating each of these receptors using fit dose-response curves for cAMP accumulation.
CHO-K1 cells stably expressing human GLP-1R (Genebank accession #NM_002062) were grown in 90% F12-K media supplemented with 10% FBS and 250 μg/ml G418.
On day 1, CHO-K1 cells were plated at 1.5 million cells per T75 flask in 90% F12-K media supplemented with 10% FBS. On day 3 cells were transfected with 40 mcg of each expression plasmid using Lipofectamine 2000 transfection reagent. On day 5, cells were dispensed at 1000 cells per well in white 384-well OptiPlates in 5 mcL of assay buffer consisting of 1×HBSS, 5 mM HEPES, 0.5 mM IBMX, and 0.1% casein.
Peptides were serially diluted 4-fold in assay buffer to final concentrations ranging from 1×10^−9 M to 9.5×10^−16 M. Two assay controls consisting of 50 mcM forskolin (cAMP system maximum) or assay buffer only (cAMP system minimum) were also prepared. Five microliters of each peptide-concentration, or assay control, was added to triplicate wells and incubated for thirty minutes at room temperature. During this incubation step a 4× europium labelled cAMP tracer solution and a 4× Ulight®-anti-cAMP solution (consisting of an anti-cAMP monoclonal antibody labelled with Ulight™ dye) was prepared according to the manufacturer's protocol (PerkinElmer LANCE Ultra cAMP kit). Following this incubation, 5 mcL europium labelled cAMP and 5 mcL Ulight anti-cAMP antibody was added to each well. The plate was covered to prevent evaporation and incubated for 60 minutes at room temperature in the dark. Plates were read on an Envision fluorescent plate reader (PerkinElmer).
Test values were first normalized to the system maximum and system minimum averaged values in Excel using the formula: (test value−system min average)/(system max average -system min average)*100. Normalized test values represent a baseline corrected percentage of the system maximum cAMP response induced by forskolin. Data from up to 3 replicate tests were analyzed for each peptide. Potency values were estimated using GraphPad Prism software (v7.04) by fitting data to a 4-parameter logistic curve model: Y=Bottom+(Top−Bottom)/(1+10^((LogEC50−X))). The Hill slope was constrained to 1.0. EC50 values were converted to pEC50 values using the formula: pEC50=−Log (EC50).
`CC(C)C[C@H](NC(=O)[C@H](Cc1ccc(O)cc1)NC(=O)[C@H](CCCCN)NC(=O)[C@H](CO)NC(=O)[C@H](Cc1ccc(O)cc1)NC(=O)[C@H](CC(=O)O)NC(=O)[C@H](CO)NC(=O)[C@@H](NC(=O)[C@H](Cc1ccccc1)NC(=O)[C@@H](NC(=O)CNC(=O)[C@H](Cc1c[nH]cn1)NC(=O)[C@H](CO)NC(=O)[C@@H](N)Cc1ccc(O)cc1)[C@@H](C)O)[C@@H](C)O)C(=O)N[C@@H](CC(=O)O)C(=O)N[C@@H](CCCCNC(=O)CC[C@H](NC(=O)CC[C@H](NC(=O)COCCOCCNC(=O)CCCCCCCCCCCCCCCCCCC(=O)O)C(=O)O)C(=O)O)C(=O)N[C@@H](CCCCN)C(=O)N[C@@H](Cc1ccc(O)cc1)C(=O)N[C@@H](C)C(=O)N[C@@H](CCC(N)=O)C(=O)N[C@@H](CCC(=O)O)C(=O)N[C@@H](Cc1ccccc1)C(=O)N[C@H](C(=O)NC(C)(C)C(=O)N[C@@H](Cc1c[nH]c2ccccc12)C(=O)N[C@@H](CC(C)C)C(=O)N[C@@H](CCC(=O)O)C(=O)N[C@@H](CCC(=O)O)C(=O)N[C@@H](CCC(=O)O)C(=O)N1CCC[C@H]1C(=O)N[C@@H](CO)C(=O)N[C@@H](CO)C(=O)NCC(=O)N[C@@H](C)C(=O)N1CCC[C@H]1C(=O)N1CCC[C@H]1C(=O)N1CCC[C@H]1C(=O)N[C@@H](CO)C(=O)O)C(C)C` [Compound A15] (H-YSHGTFTSDYSKYLDK([γGlu-γGlu-AEEA-C20 diacid])KYAQEFV[Aib]WLEEEPSSGAPPPS-OH): the half-maximal effective concentration (EC50) is > 1 nM.
As for `CC(C)C[C@H](NC(=O)[C@H](Cc1ccc(O)cc1)NC(=O)[C@H](CCCCN)NC(=O)[C@H](CO)NC(=O)[C@H](Cc1ccc(O)cc1)NC(=O)[C@H](CC(=O)O)NC(=O)[C@H](CO)NC(=O)[C@@H](NC(=O)[C@H](Cc1ccccc1)NC(=O)[C@@H](NC(=O)CNC(=O)[C@H](Cc1c[nH]cn1)NC(=O)[C@H](CO)NC(=O)[C@@H](N)Cc1ccc(O)cc1)[C@@H](C)O)[C@@H](C)O)C(=O)N[C@@H](CC(=O)O)C(=O)N[C@@H](CCCCNC(=O)CC[C@H](NC(=O)CC[C@H](NC(=O)COCCOCCNC(=O)CCCCCCCCCCCCCCCCCCC(=O)O)C(=O)O)C(=O)O)C(=O)N[C@@H](CCCCN)C(=O)N[C@@H](Cc1ccc(O)cc1)C(=O)N[C@@H](C)C(=O)N[C@@H](CCC(N)=O)C(=O)N[C@@H](CCC(=O)O)C(=O)N[C@@H](Cc1ccccc1)C(=O)N[C@H](C(=O)NC(C)(C)C(=O)N[C@@H](Cc1c[nH]c2ccccc12)C(=O)N[C@@H](CC(C)C)C(=O)N[C@@H](CCC(=O)O)C(=O)N[C@@H](CC(N)=O)C(=O)N[C@@H](CCC(=O)O)C(=O)N1CCC[C@H]1C(=O)N[C@@H](CO)C(=O)N[C@@H](CO)C(=O)NCC(=O)N[C@@H](C)C(=O)N1CCC[C@H]1C(=O)N1CCC[C@H]1C(=O)N1CCC[C@H]1C(=O)N[C@@H](CO)C(=O)O)C(C)C` [Compound A16] (H-YSHGTFTSDYSKYLDK([γGlu-γGlu-AEEA-C20 diacid])KYAQEFV[Aib]WLENEPSSGAPPPS-OH), the EC50 was > 1 nM.
For `CC(C)C[C@H](NC(=O)[C@H](Cc1ccc(O)cc1)NC(=O)[C@H](CCCCN)NC(=O)[C@H](CO)NC(=O)[C@H](Cc1ccc(O)cc1)NC(=O)[C@H](CC(=O)O)NC(=O)[C@H](CO)NC(=O)[C@@H](NC(=O)[C@H](Cc1ccccc1)NC(=O)[C@@H](NC(=O)CNC(=O)[C@H](Cc1c[nH]cn1)NC(=O)[C@H](CO)NC(=O)[C@@H](N)Cc1ccc(O)cc1)[C@@H](C)O)[C@@H](C)O)C(=O)N[C@@H](CC(=O)O)C(=O)N[C@@H](CCCCNC(=O)CC[C@H](NC(=O)CC[C@H](NC(=O)COCCOCCNC(=O)CCCCCCCCCCCCCCCCCCC(=O)O)C(=O)O)C(=O)O)C(=O)N[C@@H](CCCCN)C(=O)N[C@@H](Cc1ccc(O)cc1)C(=O)N[C@@H](C)C(=O)N[C@@H](CCC(N)=O)C(=O)N[C@@H](CCC(=O)O)C(=O)N[C@@H](Cc1ccccc1)C(=O)N[C@H](C(=O)NC(C)(C)C(=O)N[C@@H](Cc1c[nH]c2ccccc12)C(=O)N[C@@H](CC(C)C)C(=O)N[C@@H](CCC(=O)O)C(=O)N[C@@H](CCC(N)=O)C(=O)N[C@@H](CCC(=O)O)C(=O)N1CCC[C@H]1C(=O)N[C@@H](CO)C(=O)N[C@@H](CO)C(=O)NCC(=O)N[C@@H](C)C(=O)N1CCC[C@H]1C(=O)N1CCC[C@H]1C(=O)N1CCC[C@H]1C(=O)N[C@@H](CO)C(=O)O)C(C)C` [Compound A17] (H-YSHGTFTSDYSKYLDK([γGlu-γGlu-AEEA-C20 diacid])KYAQEFV[Aib]WLEQEPSSGAPPPS-OH; N-terminus assumed) the value was > 1 nM; for `CC(C)C[C@H](NC(=O)[C@H](Cc1ccc(O)cc1)NC(=O)[C@H](CCCCN)NC(=O)[C@H](CO)NC(=O)[C@H](Cc1ccc(O)cc1)NC(=O)[C@H](CC(=O)O)NC(=O)[C@H](CO)NC(=O)[C@@H](NC(=O)[C@H](Cc1ccccc1)NC(=O)[C@@H](NC(=O)CNC(=O)[C@H](Cc1c[nH]cn1)NC(=O)[C@H](CO)NC(=O)[C@@H](N)Cc1ccc(O)cc1)[C@@H](C)O)[C@@H](C)O)C(=O)N[C@@H](CC(=O)O)C(=O)N[C@@H](CCCCNC(=O)CC[C@H](NC(=O)CC[C@H](NC(=O)COCCOCCNC(=O)CCCCCCCCCCCCCCCCCCC(=O)O)C(=O)O)C(=O)O)C(=O)N[C@@H](CCCCN)C(=O)N[C@@H](Cc1ccc(O)cc1)C(=O)N[C@@H](C)C(=O)N[C@@H](CCC(N)=O)C(=O)N[C@@H](CCC(=O)O)C(=O)N[C@@H](Cc1ccccc1)C(=O)N[C@H](C(=O)NC(C)(C)C(=O)N[C@@H](Cc1c[nH]c2ccccc12)C(=O)N[C@@H](CC(C)C)C(=O)N[C@@H](CCC(=O)O)C(=O)N[C@@H](CO)C(=O)N[C@@H](CCC(=O)O)C(=O)N1CCC[C@H]1C(=O)N[C@@H](CO)C(=O)N[C@@H](CO)C(=O)NCC(=O)N[C@@H](C)C(=O)N1CCC[C@H]1C(=O)N1CCC[C@H]1C(=O)N1CCC[C@H]1C(=O)N[C@@H](CO)C(=O)O)C(C)C` [Compound A19] (H-YSHGTFTSDYSKYLDK([γGlu-γGlu-AEEA-C20 diacid])KYAQEFV[Aib]WLESEPSSGAPPPS-OH), > 1 nM; for `CC(C)C[C@H](NC(=O)[C@H](Cc1ccc(O)cc1)NC(=O)[C@H](CCCCN)NC(=O)[C@H](CO)NC(=O)[C@H](Cc1ccc(O)cc1)NC(=O)[C@H](CC(=O)O)NC(=O)[C@H](CO)NC(=O)[C@@H](NC(=O)[C@H](Cc1ccccc1)NC(=O)[C@@H](NC(=O)CNC(=O)[C@H](Cc1c[nH]cn1)NC(=O)[C@H](CO)NC(=O)[C@@H](N)Cc1ccc(O)cc1)[C@@H](C)O)[C@@H](C)O)C(=O)N[C@@H](CC(=O)O)C(=O)N[C@@H](CCCCNC(=O)CC[C@H](NC(=O)CC[C@H](NC(=O)COCCOCCNC(=O)CCCCCCCCCCCCCCCCCCC(=O)O)C(=O)O)C(=O)O)C(=O)N[C@@H](CCCCN)C(=O)N[C@@H](Cc1ccc(O)cc1)C(=O)N[C@@H](C)C(=O)N[C@@H](CCC(N)=O)C(=O)N[C@@H](CCC(=O)O)C(=O)N[C@@H](Cc1ccccc1)C(=O)N[C@H](C(=O)NC(C)(C)C(=O)N[C@@H](Cc1c[nH]c2ccccc12)C(=O)N[C@@H](CC(C)C)C(=O)N[C@@H](CCC(=O)O)C(=O)N[C@@H](CCCCN)C(=O)N[C@@H](CCC(=O)O)C(=O)N1CCC[C@H]1C(=O)N[C@@H](CO)C(=O)N[C@@H](CO)C(=O)NCC(=O)N[C@@H](C)C(=O)N1CCC[C@H]1C(=O)N1CCC[C@H]1C(=O)N1CCC[C@H]1C(=O)N[C@@H](CO)C(=O)O)C(C)C` [Compound A20] (H-YSHGTFTSDYSKYLDK([γGlu-γGlu-AEEA-C20 diacid])KYAQEFV[Aib]WLEKEPSSGAPPPS-OH; N-terminus assumed), > 1 nM.
With `CC(C)C[C@H](NC(=O)[C@H](Cc1ccc(O)cc1)NC(=O)[C@H](CCCCN)NC(=O)[C@H](CO)NC(=O)[C@H](Cc1ccc(O)cc1)NC(=O)[C@H](CC(=O)O)NC(=O)[C@H](CO)NC(=O)[C@@H](NC(=O)[C@H](Cc1ccccc1)NC(=O)[C@@H](NC(=O)CNC(=O)[C@H](Cc1c[nH]cn1)NC(=O)[C@H](CO)NC(=O)[C@@H](N)Cc1ccc(O)cc1)[C@@H](C)O)[C@@H](C)O)C(=O)N[C@@H](CC(=O)O)C(=O)N[C@@H](CCCCNC(=O)CC[C@H](NC(=O)CC[C@H](NC(=O)COCCOCCNC(=O)CCCCCCCCCCCCCCCCCCC(=O)O)C(=O)O)C(=O)O)C(=O)N[C@@H](CCCCN)C(=O)N[C@@H](Cc1ccc(O)cc1)C(=O)N[C@@H](C)C(=O)N[C@H]1CCC(=O)NCCCC[C@@H](C(=O)N[C@@H](Cc2c[nH]c3ccccc23)C(=O)N[C@@H](CC(C)C)C(=O)N[C@@H](CCC(=O)O)C(=O)N[C@@H](CC(=O)O)C(=O)N[C@@H](CCC(=O)O)C(=O)N2CCC[C@H]2C(=O)N[C@@H](CO)C(=O)N[C@@H](CO)C(=O)NCC(=O)N[C@@H](C)C(=O)N2CCC[C@H]2C(=O)N2CCC[C@H]2C(=O)N2CCC[C@H]2C(=O)N[C@@H](CO)C(=O)O)NC(=O)[C@H](C(C)C)NC(=O)[C@H](Cc2ccccc2)NC(=O)[C@H](CCCCN)NC1=O` [Compound A21] (H-YSHGTFTSDYSKYLDK([γGlu-γGlu-AEEA-C20 diacid])KYAEKFVKWLEDEPSSGAPPPS-OH; lactam 20-24; N-terminus assumed) the figure was > 1 nM.
